According to US6228872A, “Neurotrophic diamide and carbamate agents” (Bristol-Myers Squibb Company, priority 1999, dated 2001):
Like-named read-outs stand apart in the source and are kept apart here. One block for each molecule: values may come before it.

Biological target: FKBP12 (Homo sapiens, UniProt P62942)
Test: FKBP12 Rotamase Inhibition Assay
Format: biochemical
Details: for inhibition at 10 µM: read-out: % inhib. at 10 μM; for Ki: apparent Ki, 4° C., substrate succinyl-Ala-Leu-Pro-Phe-p-nitroanilide
Method: FKBP12 Rotamase Inhibition Assay
The rotamase activity of FKBP-12 was measured by an adaptation of the assay described by Kofron et al. (Biochemistry, 30, pp. 6127-6134 (1991)). The assay was carried out at 4° C. with 1 mg chymotrypsin/mL of assay with succinyl-Ala-Leu-Pro-Phe-p-nitroanilide as the substrate. Chymotrypsin rapidly hydrolyzes the peptide bond on the C-terminal side of the Phe of the trans form of the peptide and releases the chromogenic p-nitroaniline. The rate of the reaction is controlled by the rate of conversion of the cis form of the peptide to the trans-form, the reaction catalyzed by FKBP12. The apparent Ki values for inhibition of the rotamase activity were determined by measuring decreases in the first order rate constant of the reaction catalyzed by FKBP12 as a function of the concentrations of the compounds described herein. Ki is the concentration of the compound that causes 50 percent inhibition of rotamase activity which is indicative of neurite outgrowth activity.

[1] = Table 2, 1 μM (values marked *), read-out: % inhib. at 1 μM*
[2] = Table 3, 1 μM, read-out: % rotamase inhib. at 1 μM
[3] = Table 4, 1 μM, read-out: % rotamase inhib. at 1 μM
[4] = Table 1, 1 μM (values marked *), read-out: % inhib. at 1 μM*

Sequence of FKBP12 (P62942 whole entry, species assumed): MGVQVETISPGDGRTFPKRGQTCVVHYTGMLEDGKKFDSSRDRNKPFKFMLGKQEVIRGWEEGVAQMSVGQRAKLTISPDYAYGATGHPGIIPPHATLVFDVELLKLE

inhibition at 10 µM (Table 2): 11%
Structure (SMILES): COc1cc(C(=O)C(=O)N2CCCCC2COC(=O)N(CCCc2ccccc2)CCCc2cccnc2)cc(OC)c1OC (racemic) [Example 19, N-(3,4,5-Trimethoxyphenyl)oxalyl-(±)-piperidinylmethyl-[N',N'-3-(3-pyridyl)-propyl-3-phenylpropylamino]carbamate]

inhibition at 1 µM [1]: 11%
Structure (SMILES): COc1cc(C(F)(F)C(=O)N2CCCCC2COC(=O)N(CCCc2cccnc2)Cc2ccccc2)cc(OC)c1OC (racemic) [Example 41, N-(3,4,5-Trimethoxyphenyl)-difluoroacetyl-(±)-piperidinylmethyl-[N',N'-3-(3-pyridyl)propyl-benzylamino]carbamate]

inhibition at 1 µM [1]: 1%
Structure (SMILES): COc1cc(C(F)(F)C(=O)N2CCCCC2COC(=O)N(CCCc2cccnc2)CCc2ccccc2)cc(OC)c1OC (racemic) [Example 42, N-(3,4,5-Trimethoxyphenyl)-difluoroacetyl-(±)-piperidinylmethyl-[N',N'-3-(3-pyridyl)propyl-2-phenylethylamino]carbamate]

inhibition at 1 µM [1]: 0%
Structure (SMILES): COc1cc(C(F)(F)C(=O)N2CCCCC2COC(=O)N(CCCCc2ccccc2)CCCc2cccnc2)cc(OC)c1OC (racemic) [Example 43]

inhibition at 10 µM (Table 1): 93%
Structure (SMILES): CC(C)(C)C(=O)C(=O)N1CCC[C@H]1COC(=O)N(CCCc1ccccc1)CCCc1cccnc1 [Example 1, N-Trimethylpyruvyl-L-pyrrolidinylmethyl-[N',N'-3-(3-pyridyl)propyl-3-phenylpropylamino]carbamate]

inhibition at 10 µM (Table 1): 27%
Structure (SMILES): CC(C)(C)C(=O)C(=O)N1CCC[C@H]1COC(=O)N(Cc1ccccc1)Cc1ccccc1 [Example 2, N-Trimethylpyruvyl-L-pyrrolidinylmethyl-[N',N'-dibenzylamino]carbamate]

inhibition at 10 µM (Table 1): 39%
Structure (SMILES): CC(C)(C)C(=O)C(=O)N1CCC[C@H]1COC(=O)N(CCc1ccccc1)Cc1ccccc1 [Example 3, N-Trimethylpyruvyl-L-pyrrolidinylmethyl-[N',N'-2-phenylethyl-benzylamino]carbamate]

inhibition at 10 µM (Table 1): 12%
Structure (SMILES): CC(C)(C)C(=O)C(=O)N1CCC[C@H]1COC(=O)NCc1cccnc1 [Example 4, N-Trimethylpyruvyl-L-pyrrolidinylmethyl-[N'-3-pyridylmethylamino]carbamate]

inhibition at 10 µM (Table 1): 0%
Structure (SMILES): CC(C)(C)C(=O)C(=O)N1CCC[C@H]1COC(=O)NCCc1ccccc1 [Example 5, N-Trimethylpyruvyl-L-pyrrolidinylmethyl-[N'-2-phenylethylamino]carbamate]

inhibition at 10 µM (Table 1): 32%
Structure (SMILES): CC(C)(C)C(=O)C(=O)N1CCC[C@H]1COC(=O)NCCCc1ccccc1 [Example 6, N-Trimethylpyruvyl-L-pyrrolidinylmethyl-[N'-3-phenylpropylamino]carbamate]

inhibition at 10 µM (Table 2): 100%
Ki (Table 2): 447 nM
Structure (SMILES): COc1cc(C(=O)C(=O)N2CCC[C@H]2COC(=O)N(CCCc2ccccc2)CCCc2cccnc2)cc(OC)c1OC [Example 7, N-(3,4,5-Trimethoxyphenyl)oxalyl-L-pyrrolidinylmethyl-[N',N'-3-(3-pyridyl)propyl-3-phenylpropylamino]carbamate]

inhibition at 10 µM (Table 1): 11%
Structure (SMILES): COc1cc(C(=O)C(=O)N2CCC[C@H]2COC(=O)NCc2cccnc2)cc(OC)c1OC [Example 8, N-(3,4,5-Trimethoxyphenyl)oxalyl-L-pyrrolidinylmethyl-[N'-3-pyridylmethylamino]carbamate]

inhibition at 10 µM (Table 1): 11%
Structure (SMILES): COc1cc(C(=O)C(=O)N2CCC[C@H]2COC(=O)NCCc2ccccc2)cc(OC)c1OC [Example 9, N-(3,4,5-Trimethoxyphenyl)oxalyl-L-pyrrolidinylmethyl-[N'-2-phenylethylamino]carbamate]

inhibition at 1 µM [1]: 52%
Structure (SMILES): COc1cc(C(=O)C(=O)N2CCC[C@H]2COC(=O)N(CCCCc2ccccc2)CCCCc2cccnc2)cc(OC)c1OC [Example 10, N-(3,4,5-Trimethoxyphenyl)oxalyl-L-pyrrolidinylmethyl-[N',N'-4-(3-pyridyl)butyl-4-phenylbutylamino]carbamate]

inhibition at 10 µM (Table 2): 96%
Ki (Table 2): 537 nM
Structure (SMILES): COc1cc(C(=O)C(=O)N2CCC[C@H]2COC(=O)N(CCCCc2ccccc2)CCCc2cccnc2)cc(OC)c1OC [Example 11, N-(3,4,5-Trimethoxyphenyl)oxalyl-L-pyrrolidinylmethyl-[N',N'-3-(3-pyridyl)propyl-4-phenylbutylamino]carbamate]

inhibition at 10 µM (Table 2): 80%
Structure (SMILES): COc1cc(C(=O)C(=O)N2CCC[C@H]2COC(=O)N(CCCc2cccnc2)CCc2ccccc2)cc(OC)c1OC [Example 12, N-(3,4,5-Trimethoxyphenyl)oxalyl-L-pyrrolidinylmethyl-[N',N'-3-(3-pyridyl)propyl-2-phenylethylamino]carbamate]

inhibition at 10 µM (Table 2): 79%
Structure (SMILES): COc1cc(C(=O)C(=O)N2CCC[C@H]2COC(=O)N(CCCc2cccnc2)Cc2ccccc2)cc(OC)c1OC [Example 13, N-(3,4,5-Trimethoxyphenyl)oxalyl-L-pyrrolidinylmethyl-[N',N'-3-(3-pyridyl)propyl-benzylamino]carbamate]

inhibition at 1 µM [1]: 54%
Structure (SMILES): COc1cc(C(=O)C(=O)N2CCC[C@H]2COC(=O)N(CCCCc2cccnc2)CCCc2ccccc2)cc(OC)c1OC [Example 14, N-(3,4,5-Trimetboxyphenyl)oxalyl-L-pyrrolidinylmethyl-[N',N'-4-(3-pyridyl)butyl-3-phenylpropylamino]carbamate]

inhibition at 10 µM (Table 2): 82%
Structure (SMILES): COc1cc(C(=O)C(=O)N2CCC[C@H]2COC(=O)N(CCCCc2cccnc2)CCc2ccccc2)cc(OC)c1OC [Example 15, N-(3,4,5-Trimethoxyphenyl)oxalyl-L-pyrrolidinylmethyl-[N',N'-4-(3-pyridyl)butyl-2-phenylethylamino]carbamate]

inhibition at 1 µM [1]: 18%
Structure (SMILES): COc1cc(C(=O)C(=O)N2CCC[C@H]2COC(=O)N(CCCCc2cccnc2)Cc2ccccc2)cc(OC)c1OC [Example 16, N-(3,4,5-Trimethoxyphenyl)oxalyl-L-pyrrolidinylmethyl-[N',N'-4-(^3-pyridyl)butyl-benzylamino]carbamate]

inhibition at 1 µM [2]: 75%
Structure (SMILES): COc1cccc(CCCN(CCCc2cccnc2)C(=O)OC[C@@H]2CCCN2C(=O)C(=O)c2cc(OC)c(OC)c(OC)c2)c1 [Example 17, N-(3,4,5-Trimethoxyphenyl)oxalyl-L-pyrrolidinylmethyl-[N',N'-3-(3-pyridyl)propyl-3-(3-methoxyphenyl)propylamino]carbamate]

inhibition at 1 µM [2]: 68%
Structure (SMILES): COc1cc(CCCN(CCCc2cccnc2)C(=O)OC[C@@H]2CCCN2C(=O)C(=O)c2cc(OC)c(OC)c(OC)c2)cc(OC)c1OC [Example 18, N-(3,4,5-Trimethoxyphenyl)oxalyl-L-pyrrolidinylmethyl-[N',N'-3-(3-pyridyl)propyl-3-(3,4,5-trimethoxyphenyl)propylamino]carbamate]

inhibition at 1 µM [3]: 0%
Structure (SMILES): COc1cc(C(=O)C(=O)N2CCCC[C@H]2CCC(=O)N(CCCc2ccccc2)CCCc2cccnc2)cc(OC)c1OC [Example 20]

inhibition at 1 µM [3]: 1%
Structure (SMILES): COc1cc(C(=O)C(=O)N2CCC[C@H]2CCC(=O)N(CCCc2ccccc2)CCCc2cccnc2)cc(OC)c1OC [Example 21, N,N-(3-Phenylpropyl)-3-(3-pyridyl)propyl-2-[(S)-N'-(3,4,5-trimethoxyphenyl)oxalyl-2-pyrrolidinyl]propionamide]

inhibition at 1 µM [1]: 83%
Ki (Table 2): 271 nM
Structure (SMILES): COc1cc(C(F)(F)C(=O)N2CCC[C@H]2COC(=O)N(CCCCc2ccccc2)CCCCc2cccnc2)cc(OC)c1OC [Example 22, N-(3,4,5-Trimethoxyphenyl)-difluoroacetyl-L-pyrrolidinylmethyl-[N',N'-4-(3-pyridyl)butyl-4-phenylbutylamino]carbamate]

inhibition at 10 µM (Table 2): 98%
Ki (Table 2): 113 nM
Structure (SMILES): COc1cc(C(F)(F)C(=O)N2CCC[C@H]2COC(=O)N(CCCc2ccccc2)CCCc2cccnc2)cc(OC)c1OC [Example 23, N-(3,4,5-Trimethoxyphenyl)-difluoroacetyl-L-pyrrolidinylmethyl-[N',N'-3-(3-pyridyl)propyl-3-phenylpropylamino]carbamate]

inhibition at 1 µM [4]: 34%
Structure (SMILES): COc1cc(C(F)(F)C(=O)N2CCC[C@H]2COC(=O)N(Cc2ccccc2)Cc2ccccc2)cc(OC)c1OC [Example 24, N-(3,4,5-Trimethoxyphenyl)-difluoroacetyl-L-pyrrolidinylmethyl-[N',N'-dibenzylamino]carbamate]

inhibition at 1 µM [4]: 11%
Structure (SMILES): COc1cc(C(F)(F)C(=O)N2CCC[C@H]2COC(=O)N(CCc2ccccc2)CCc2c[nH]c3ccccc23)cc(OC)c1OC [Example 25, N-(3,4,5-Trimethoxyphenyl)-difluoroacetyl-L-pyrrolidinylmethyi-[N',N'-2-(3-indolyl)ethyl-2-phenylethylamino]carbamate]

inhibition at 10 µM (Table 2): 99%
Ki (Table 2): 158 nM
Structure (SMILES): COc1cc(C(F)(F)C(=O)N2CCC[C@H]2COC(=O)N(CCCCc2ccccc2)CCCc2cccnc2)cc(OC)c1OC [Example 26, N-(3,4,5-Trimethoxyphenyl)-difluoroacetyl-L-pyrrolidinylmethyl-[N',N'-3-(3-pyridyl)propyl-4-phenylbutylamino]carbamate]

inhibition at 10 µM (Table 2): 97%
Ki (Table 2): 234 nM
Structure (SMILES): COc1cc(C(F)(F)C(=O)N2CCC[C@H]2COC(=O)N(CCCc2cccnc2)CCc2ccccc2)cc(OC)c1OC [Example 27, N-(3,4,5-Trimethoxyphenyl)-difluoroacetyl-L-pyrrolidinylmethyl-[N',N'-3-(3-pyridyl)propyl-2-phenylethylamino]carbamate]
